The results in this text go back to US12258338B2, “Modulators of the integrated stress response pathway” (EVOTEC INTERNATIONAL GMBH, priority 2019, dated 2025).

Test [1] deals with T1, human ERG potassium channel (hERG) (Homo sapiens, UniProt Q12809).
T1 construct: expressed in transfected cells; host or cells: HEK293, stably transfected, tetracycline-inducible promoter
The experiment in a line: hERG channel tail current recording using in vitro Rapid ICE (automated patch-clamp, QPatch HTX). To be noted: Table 26. It is filed as cell-based. On the procedure: Protocol—Measure of the Effect on hERG Channel by Tail Current Recording Using In Vitro Rapid ICE
The potency of the example compounds in inhibiting human ERG potassium channel (hERG) tail current was assessed in a recombinant HEK293 cell line stably transfected with hERG cDNA under an inducible promoter, using Rapid ICE (rapid ion channel electrophysiology) assay. Rapid ICE is an automated patch-clamp assay utilizing the QPatch HTX system (Sophion Bioscience A/S). Briefly, inducible HEK hERG cells were cultivated in minimum essential medium supplemented with 10% FBS, 1% non-essential amino acids, 1% sodium pyruvate, 2 mM 1-glutamine, 15 μg/mL blasticidin, and 100 μg/mL hygromycin. hERG channel expression induction was obtained by adding 10 μg/mL tetracycline for 24, 48, or 72 h before recordings.
On the day of the experiment, cells were detached with TrypLE and prepared to be loaded on the instrument. Cells were resuspended in 7 mL of Serum-Free Media containing 25 mM Hepes and soybean trypsin inhibitor and immediately placed in the cell storage tank of the machine. The composition of the extracellular buffer was (mM): NaCl 137, KCl 4, CaCl2 1.8, MgCl2 1.0, d-glucose 10, N-2-hydroxyethylpiperazine-N′-2-ethanesulfonic acid (HEPES) 10, pH 7.4 with 1 M NaOH. The composition of the intracellular solution was (mM): KCl 130, MgCl2 1.0, ethylene glycol-bis(β-aminoethyl ether)-N,N,N′,N′-tetraacetic acid (EGTA) 5, MgATP 5, HEPES 10, pH 7.2 with 1 M KOH. The voltage protocol included the following steps: step from −80 to −50 mV for 200 ms, +20 mV for 4.8 s, step to −50 mV for 5 s, then step to the holding potential of −80 mV. Compounds were dissolved in DMSO and diluted in extracellular buffer to achieve final test concentrations (0.3, 3, and 30 μM) in 0.3% DMSO. The voltage protocol was run and recorded continuously during the experiment. The vehicle, corresponding to 0.3% DMSO in extracellular buffer was then applied for 3 min, followed by the test substance in triplicate. The standard combined exposure time was 5 min. The average of tail current amplitude values recorded from four sequential voltage pulses was used to calculate for each cell the effect of the test substance by calculating the residual current (% control) compared with vehicle pretreatment. Data were reported as % inhibition for each concentration tested, and IC50 values were estimated using QPatch software. At least two cells were tested, and even more if results diverged.
For orientation: hERG is a cardiac potassium channel; its block is linked to QT prolongation.

The test system of the next test is ATF4. The experiment in a line: HEK-ATF4 High Content Imaging assay (prevention of Tunicamycin induced ISR; ATF4 signal ratio between nucleus and cytoplasm). Format: cell-based. The conditions noted are these: Homo sapiens; Wild-type HEK293 cells, Tunicamycin induced ISR, 6 h; read-out: IIEK-ATF4 Activity. On the procedure:
HEK-ATF4 High Content Imaging Assay
Example compounds were tested in the HEK-ATF4 High Content Imaging assay to assess their pharmacological potency to prevent Tunicamycin induced ISR. Wild-type HEK293 cells were plated in 384-well imaging assay plates at a density of 12,000 cells per well in growth medium (containing DMEM/F12, 10% FBS, 2 mM L-Glutamine, 100 U/mL Penicillin-100 μg/mL Streptomycin) and incubated at 37° C., 5% CO2. 24 h later, the medium was changed to 50 μL assay medium per well (DMEM/F12, 0.3% FBS, 2 mM L-Glutamine, 100 U/mL Penicillin-100 μg/mL Streptomycin). Example compounds were serially diluted in DMSO, spotted into intermediate plates and prediluted with assay medium containing 3.3 μM Tunicamycin to give an 11-fold excess of final assay concentration. In addition to the example compound testing area, the plates also contained multiples of control wells for assay normalization purposes, wells containing Tunicamycin but no example compounds (High control), as well as wells containing neither example compound nor Tunicamycin (Low control). The assay was started by transferring 5 μL from the intermediate plate into the assay plates, followed by incubation for 6 h at 37° C., 5% CO2. Subsequently, cells were fixed (4% PFA in PBS, 20 min at r.t.) and submitted to indirect ATF4 immunofluorescence staining (primary antibody rabbit anti ATF4, clone D4B8, Cell Signaling Technologies; secondary antibody Alexa Fluor 488 goat anti-rabbit IgG (H+L), Thermofisher Scientific). Nuclei were stained using Hoechst dye (Thermofisher Scientific), and plates were imaged on an Opera Phenix High Content imaging platform equipped with 405 nm and 488 nm excitation. Finally, images were analyzed using script based algorithms. The main readout HEK-ATF4 monitored the ATF4 signal ratio between nucleus and cytoplasm. Tunicamycin induced an increase in the overall ATF4 ratio signal, which was prevented by ISR modulating example compounds. In addition, HEK-CellCount readout was derived from counting the number of stained nuclei corresponding to healthy cells. This readout served as an internal toxicity control.

T1 sequence (Q12809 whole entry): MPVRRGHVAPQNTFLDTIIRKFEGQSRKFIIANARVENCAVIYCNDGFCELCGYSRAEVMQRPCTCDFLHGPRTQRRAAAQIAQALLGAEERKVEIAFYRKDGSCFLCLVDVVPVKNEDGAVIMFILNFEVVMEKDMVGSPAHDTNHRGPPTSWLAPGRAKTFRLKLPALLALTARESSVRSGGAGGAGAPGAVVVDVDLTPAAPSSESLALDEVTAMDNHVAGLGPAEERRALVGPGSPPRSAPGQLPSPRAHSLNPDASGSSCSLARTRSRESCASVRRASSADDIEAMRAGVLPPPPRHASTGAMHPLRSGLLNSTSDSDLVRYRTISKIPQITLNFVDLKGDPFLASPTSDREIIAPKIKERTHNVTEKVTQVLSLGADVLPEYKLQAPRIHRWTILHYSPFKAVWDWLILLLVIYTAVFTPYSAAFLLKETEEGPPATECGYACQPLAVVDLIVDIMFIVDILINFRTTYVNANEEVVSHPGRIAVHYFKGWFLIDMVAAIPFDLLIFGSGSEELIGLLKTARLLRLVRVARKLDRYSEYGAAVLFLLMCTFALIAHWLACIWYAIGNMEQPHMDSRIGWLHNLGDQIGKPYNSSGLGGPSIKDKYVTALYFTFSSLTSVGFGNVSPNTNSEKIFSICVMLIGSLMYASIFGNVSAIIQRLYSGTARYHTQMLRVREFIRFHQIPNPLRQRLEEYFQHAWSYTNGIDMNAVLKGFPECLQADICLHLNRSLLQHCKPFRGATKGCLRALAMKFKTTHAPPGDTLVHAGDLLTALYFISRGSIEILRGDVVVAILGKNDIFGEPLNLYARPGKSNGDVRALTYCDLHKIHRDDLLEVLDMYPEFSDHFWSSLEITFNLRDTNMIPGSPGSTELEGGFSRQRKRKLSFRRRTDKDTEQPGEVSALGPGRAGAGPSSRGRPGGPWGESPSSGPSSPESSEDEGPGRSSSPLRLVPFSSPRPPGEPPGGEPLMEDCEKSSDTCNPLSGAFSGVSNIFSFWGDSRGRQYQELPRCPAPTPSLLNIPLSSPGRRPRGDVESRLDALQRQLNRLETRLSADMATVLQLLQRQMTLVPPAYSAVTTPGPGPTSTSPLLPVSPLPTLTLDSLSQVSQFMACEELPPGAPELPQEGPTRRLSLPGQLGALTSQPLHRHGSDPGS

As to `N#Cc1cc(OCC(=O)N[C@H]2CC[C@H](c3nnc(OCCOC(F)(F)F)o3)NC2)ccc1Cl` [Example 29, 2-(4-chloro-3-cyanophenoxy)-N-[(3S,6R)-6-{5-[2-(trifluoromethoxy)ethoxy]-1,3,4-oxadiazol-2-yl}piperidin-3-yl]acetamide], the IC50 in test [1] was > 5000 nM; with ATF4, 500 to 2000 nM.

Consider `O=C(COc1ccc(Cl)c(F)c1)N[C@@H]1CN[C@@H](c2nnc(-c3ccc(Cl)cc3)o2)C1` [Example 31, 2-(4-chloro-3-fluorophenoxy)-N-[(3S,5R)-5-[5-(4-chlorophenyl)-1,3,4-oxadiazol-2-yl]pyrrolidin-3-yl]acetamide], for which the IC50 was in the range of 1 to 1000 nM in test [1] and 2000 to 15000 nM with ATF4.

As to `O=C(COc1ccc(Cl)c(F)c1)N[C@H]1CC[C@H](c2nnc(OCCC(F)(F)F)o2)NC1` [Example 33, 2-(4-chloro-3-fluorophenoxy)-N-[(3S,6R)-6-[5-(3,3,3-trifluoropropoxy)-1,3,4-oxadiazol-2-yl]piperidin-3-yl]acetamide], the IC50 in test [1] fell in the range of 1000 to 5000 nM; with ATF4, 1 to 500 nM.

Turning to `O=C(COc1ccc(Cl)c(F)c1)N[C@@H]1CC[C@@H](c2nnc(-c3ccc(Cl)cc3)o2)NC1` [Example 35, 2-(4-chloro-3-fluorophenoxy)-N-[(3R,6S)-6-[5-(4-chlorophenyl)-1,3,4-oxadiazol-2-yl]piperidin-3-yl]acetamide], the IC50 in test [1] was in the range of 1 to 1000 nM; with ATF4 it was 1 to 500 nM.

Turning to `O=C(COc1ccc(Cl)c(F)c1)N[C@H]1CC[C@H](c2nnc(-c3ccc(Cl)cc3)o2)NC1` [Example 40, 2-(4-chloro-3-fluorophenoxy)-N-[(3S,6R)-6-[5-(4-chlorophenyl)-1,3,4-oxadiazol-2-yl]piperidin-3-yl]acetamide], the IC50 lay within 1 to 1000 nM in test [1] and 1 to 500 nM with ATF4.

In the case of `O=C(COc1ccc(Cl)c(F)c1)N[C@@H]1CC[C@@H](c2nnc(OCCC(F)(F)F)o2)NC1` [Example 42, 2-(4-chloro-3-fluorophenoxy)-N-[(3R,6S)-6-[5-(3,3,3-trifluoropropoxy)-1,3,4-oxadiazol-2-yl]piperidin-3-yl]acetamide], the IC50 lay within 1000 to 5000 nM in test [1] and 1 to 500 nM in the test on ATF4.

For `O=C(COc1ccc(Cl)c(F)c1)N[C@@H]1CC[C@@H](c2nnc(N3CC(OC(F)(F)F)C3)o2)NC1` [Example 43], the IC50 in test [1] is > 5000 nM; in the test with ATF4 it was 1 to 500 nM.

As for `CN1C[C@H](NC(=O)COc2ccc(Cl)c(F)c2)CC[C@H]1c1nnc(-c2ccc(Cl)cc2)o1` [Example 44, 2-(4-chloro-3-fluorophenoxy)-N-[(3R,6S)-6-[5-(4-chlorophenyl)-1,3,4-oxadiazol-2-yl]-1-methylpiperidin-3-yl]acetamide], the IC50 in test [1] was in the range of 1 to 1000 nM; in the test on ATF4 it was 1 to 500 nM.

As for `CN1C[C@@H](NC(=O)COc2ccc(Cl)c(F)c2)CC[C@@H]1c1nnc(-c2ccc(Cl)cc2)o1` [Example 45, 2-(4-chloro-3-fluorophenoxy)-N-[(3S,6R)-6-[5-(4-chlorophenyl)-1,3,4-oxadiazol-2-yl]-1-methylpiperidin-3-yl]acetamide], the IC50 was 1 to 1000 nM in test [1] and 1 to 500 nM with ATF4.

For the compound `CCN1C[C@@H](NC(=O)COc2ccc(Cl)c(F)c2)CC[C@@H]1c1nnc(-c2ccc(Cl)cc2)o1` [Example 46, 2-(4-chloro-3-fluorophenoxy)-N-[(3S,6R)-6-[5-(4-chlorophenyl)-1,3,4-oxadiazol-2-yl]-1-ethylpiperidin-3-yl]acetamide], the figures for the IC50 (in test [1]; in the test on ATF4) were 1 to 1000 nM and 1 to 500 nM, respectively.

Consider `CCN1C[C@H](NC(=O)COc2ccc(Cl)c(F)c2)CC[C@H]1c1nnc(-c2ccc(Cl)cc2)o1` [Example 47, 2-(4-chloro-3-fluorophenoxy)-N-[(3R,6S)-6-[5-(4-chlorophenyl)-1,3,4-oxadiazol-2-yl]-1-ethylpiperidin-3-yl]acetamide], for which the IC50 in test [1] fell in the range of 1 to 1000 nM; with ATF4, 1 to 500 nM.

Take `O=C(COc1ccc(Cl)c(F)c1)N[C@H]1CC[C@H](c2nnc(-c3ccc(Cl)cn3)o2)NC1` [Example 53, 2-(4-chloro-3-fluorophenoxy)-N-[(3S,6R)-6-[5-(5-chloropyridin-2-yl)-1,3,4-oxadiazol-2-yl]piperidin-3-yl]acetamide]: the values for the IC50 (in test [1]; in the test on ATF4) were 1000 to 5000 nM and 1 to 500 nM, respectively.

Take `O=C(COc1ccc(Cl)c(F)c1)N[C@H]1CC[C@H](c2nnc(-c3ccc(Cl)c(F)c3)o2)NC1` [Example 54, 2-(4-chloro-3-fluorophenoxy)-N-[(3S,6R)-6-[5-(4-chloro-3-fluorophenyl)-1,3,4-oxadiazol-2-yl]piperidin-3-yl]acetamide]: the IC50 was in the range of 1 to 1000 nM in test [1] and 1 to 500 nM in the test on ATF4.

In the case of `O=C(COc1ccc(Cl)c(F)c1)N[C@H]1CC[C@H](c2nnc(CCCOC(F)(F)F)o2)NC1` [Example 55, 2-(4-chloro-3-fluorophenoxy)-N-[(3S,6R)-6-{5-[3-(trifluoromethoxy)propyl]-1,3,4-oxadiazol-2-yl}piperidin-3-yl]acetamide], the figures for the IC50 (in test [1]; in the test on ATF4) were > 5000 nM and 1 to 500 nM, respectively.

In the case of `O=C(COc1ccc(Cl)c(F)c1)N[C@H]1CC[C@H](c2nnc(C3CC(OC4CC4)C3)o2)NC1` (stereo partly drawn) [Example 59, 2-(4-chloro-3-fluorophenoxy)-N-[(3S,6R)-6-[5-(3-cyclopropoxycyclobutyl)-1,3,4-oxadiazol-2-yl]piperidin-3-yl]acetamide], the IC50 in test [1] is > 5000 nM; in the test on ATF4, 500 to 2000 nM.

For the compound `CC(CC(F)(F)F)Oc1nnc([C@H]2CC[C@H](NC(=O)COc3ccc(Cl)c(F)c3)CN2)o1` (stereo partly drawn) [Example 64, 2-(4-chloro-3-fluorophenoxy)-N-[(3S,6R)-6-{5-[(4,4,4-trifluorobutan-2-yl)oxy]-1,3,4-oxadiazol-2-yl}piperidin-3-yl]acetamide], the IC50 was > 5000 nM in test [1] and 2000 to 15000 nM with ATF4.

As for `CC(F)(F)CCOc1nnc([C@H]2CC[C@H](NC(=O)COc3ccc(Cl)c(F)c3)CN2)o1` [Example 65, 2-(4-chloro-3-fluorophenoxy)-N-[(3S,6R)-6-[5-(3,3-difluorobutoxy)-1,3,4-oxadiazol-2-yl]piperidin-3-yl]acetamide], the results for the IC50 (in test [1]; in the test on ATF4) were 1000 to 5000 nM and 500 to 2000 nM, respectively.

`O=C(COc1ccc(Cl)c(F)c1)N[C@H]1CC[C@H](c2nnc(OCC3CC3(F)F)o2)NC1` (stereo partly drawn) [Example 66, 2-(4-chloro-3-fluorophenoxy)-N-[(3S,6R)-6-{5-[(2,2-difluorocyclopropyl)methoxy]-1,3,4-oxadiazol-2-yl}piperidin-3-yl]acetamide]: the IC50 fell in the range of 1000 to 5000 nM in test [1] and 500 to 2000 nM in the test on ATF4.

As for `CCCCOc1nnc([C@H]2CC[C@H](NC(=O)COc3ccc(Cl)c(F)c3)CN2)o1` [Example 67, N-[(3S,6R)-6-(5-butoxy-1,3,4-oxadiazol-2-yl)piperidin-3-yl]-2-(4-chloro-3-fluorophenoxy)acetamide], the results for the IC50 (in test [1]; with ATF4) were 1000 to 5000 nM and 1 to 500 nM, respectively.
